{
  "source": "patent US20080159958A1",
  "about": "“DETERMINATION OF HISTAMINE-3 BIOACTIVITY” (Abbott Laboratories, priority 2006, published 2008)",
  "key": {"[1]": {"tested_on": "diphenhydramine-induced increase of rat 1-4 Hz EEG amplitude", "experiment": "Rat cortical EEG, H3R antagonist co-administered with diphenhydramine (1-4 Hz amplitude)", "format": "in vivo", "conditions": "rats", "description": "(§1) All experiments have been approved by the Institutional Animal Care and Use Committee (IACUC) at Abbott Laboratories and are in strict accordance with the ethical guidelines for use of laboratory animals. All experiments were conducted with male adult CD-1 rats of the Sprague-Dawley strain (Charles River Laboratories, Portage, Mich.) with body weights in the range of 400-600 g. When the rats were not in the laboratory being tested, they were housed 1 per cage in a climate controlled room with 12 hour lights on, 12 hour lights off cycle and food provided ad-lib.\n(§2) For anesthesia during surgical implantation of EEG recording electrodes, rats are administered Nembutal (Abbott Laboratories) […] ip. After achieving a deep, stable plane of anesthesia, scalp hair is removed using electric clippers and the rat is placed into the ear and incisor bars of a stereotaxic instrument to immobilize the head. The scalp is disinfected with povidone iodine, and an incision is placed longitudinally along the midline of the scalp and the tissue retracted from the skull with a blunt probe. EEG recording electrodes are bilaterally implanted over the parietal (−2.0 mm anterior-posterior, 4.0 mm lateral from bregma) and frontal (+2.0 mm anterior-posterior, 3.0 mm lateral from bregma) cortices. A reference electrode was placed 11.0 mm posterior to bregma along the centerline (0.0 mm lateral). Cortical surface electrodes consist of stainless steel screws (size #90-00) soldered to a fine wire and a miniature electrical socket. To implant the electrodes, small holes are drilled (#60 bit) into the skull, taking care not to damage the dura with the drill bit. […] Once in place, the electrodes along with the miniature connector are permanently affixed to the skull with acrylic dental cement. The rats are given a 10-14 day recovery period from the surgery before experiments are conducted.\nThe EEG was recorded from rats inside sound-attenuating chambers (Med Associates Inc, St. Albans, Vt.). Before any pharmacological experiments began, implanted rats were habituated to the EEG recording chambers for 2-5 hours on 5 consecutive days. When placed into the recording chambers, a flexible cable is attached to the miniature connector implanted on the rats. This cable allows the rat unrestricted movement within the chambers during the recording session. […]\n(§3) Assessment of cortical low frequency EEG amplitude in the 1-4 Hz band (delta) was used as an electrophysiological measure of H1R and H3R antagonist activity in rats. The average 1-4 Hz EEG amplitude in microvolts (μV) was determined for 10 second epochs using Fast Fourier Transform (FFT) analysis. To determine the average 1-4 Hz EEG amplitude for the first 60 minutes of the recording, 360-10 sec FFT analyzed epochs were averaged together. […]"}, "[2]": {"tested_on": "rat 1-4 Hz EEG amplitude", "experiment": "Rat cortical EEG, H1R or H3R antagonist given alone (1-4 Hz amplitude)", "format": "in vivo", "conditions": "rats, vs. vehicle control", "description": "as §1, §2\nThe EEG was recorded from rats inside sound-attenuating chambers (Med Associates Inc, St. Albans, Vt.). Before any pharmacological experiments began, implanted rats were habituated to the EEG recording chambers for 2-5 hours on 5 consecutive days. When placed into the recording chambers, a flexible cable is attached to the miniature connector implanted on the rats. This cable allows the rat unrestricted movement within the chambers during the recording session. EEG amplifiers (AM Systems, Inc., Carlsborg, Wash.) and a computer-based data acquisition system (Datawave Inc., Berthoud, Colo.) were used to acquire (256 Hz sampling rate) and analyze data. All experiments and habituation sessions were conducted during the light phase of the circadian cycle.\nDose response effects on EEG were determined for the H3R antagonist Compound 1 (0.01-1.0 mg/kg), ABT-239 (0.1-3.0 mg/kg), and thioperamide (3.0-30.0 mg/kg). […] Dose response effects on EEG were also determined for the H1 antagonist diphenhydramine (1.0-10.0 mg/kg). […] Each rat received a vehicle control treatment (placebo), and all doses of the test compounds. All treatments were administered by the intraperitoneal (i.p.) route of administration. The treatments were administered in a random order on different days with one treatment per day, and at least 2 days between treatments. This within subjects design allowed each rat to serve as its own control. EEG recordings were begun within 10 minutes after injection and recording sessions lasted for 120 minutes. The time of day for injections and subsequent recordings were between 10:00 AM and 2:00 PM.\nas §3"}, "[3]": {"molecular_target": "rat histamine H3 receptor (Rattus norvegicus, UniProt Q9QYN8)", "sequence (Q9QYN8 whole entry)": "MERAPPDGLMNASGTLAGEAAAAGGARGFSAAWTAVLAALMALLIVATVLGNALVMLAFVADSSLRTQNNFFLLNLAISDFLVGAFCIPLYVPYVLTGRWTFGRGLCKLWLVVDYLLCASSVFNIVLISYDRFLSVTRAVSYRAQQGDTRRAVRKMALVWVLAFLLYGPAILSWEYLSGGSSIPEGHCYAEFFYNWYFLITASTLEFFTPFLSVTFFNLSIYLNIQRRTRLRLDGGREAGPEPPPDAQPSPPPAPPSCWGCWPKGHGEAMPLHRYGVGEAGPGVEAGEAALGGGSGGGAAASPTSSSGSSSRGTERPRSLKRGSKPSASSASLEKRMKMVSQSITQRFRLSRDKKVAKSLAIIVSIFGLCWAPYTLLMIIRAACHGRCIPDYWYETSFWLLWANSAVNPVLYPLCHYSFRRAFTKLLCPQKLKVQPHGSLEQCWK", "experiment": "Competition binding assay with [3H]-N-α-methylhistamine, rat H3 receptor", "quoted_text": "The rat and human H3 receptor was cloned and expressed in cells, and competition binding assays carried out, according to methods previously described (see Esbenshade, et al. Journal of Pharmacology and Experimental Therapeutics, vol. 313:165-175, 2005; Esbenshade et al., Biochemical Pharmacology 68 (2004) 933-945; Krueger, et al. Journal of Pharmacology and Experimental Therapeutics, vol. 314:271-281, 2005. Membranes were prepared from C6 or HEK293 cells, expressing the rat histamine H3 receptor, by homogenization on ice in TE buffer (50 mM Tris-HCl buffer, pH 7.4, containing 5 mM EDTA), 1 mM benzamidine, 2 μg/ml aprotinin, 1 μg/ml leupeptin, and 1 μg/ml pepstatin. The homogenate was centrifuged at 40,000 g for 20 minutes at 4° C. This step was repeated, and the resulting pellet was resuspended in TE buffer. Aliquots were frozen at −70° C. until needed. On the day of assay, membranes were thawed and diluted with TE buffer.\nMembrane preparations were incubated with [^3H]-N-α-methylhistamine (0.5-1.0 nM) in the presence or absence of increasing concentrations of ligands for H3 receptor competition binding. […] Bound radiolabel was determined by liquid scintillation counting. For all of the radioligand competition binding assays, IC50 values and Hill slopes were determined by Hill transformation of the data and pKi values were determined by the Cheng-Prusoff equation."}, "[4]": {"molecular_target": "T1, human H3 receptor (Homo sapiens, UniProt Q9Y5N1)", "T1 construct": "expressed in transfected cells", "T1 sequence (Q9Y5N1 whole entry)": "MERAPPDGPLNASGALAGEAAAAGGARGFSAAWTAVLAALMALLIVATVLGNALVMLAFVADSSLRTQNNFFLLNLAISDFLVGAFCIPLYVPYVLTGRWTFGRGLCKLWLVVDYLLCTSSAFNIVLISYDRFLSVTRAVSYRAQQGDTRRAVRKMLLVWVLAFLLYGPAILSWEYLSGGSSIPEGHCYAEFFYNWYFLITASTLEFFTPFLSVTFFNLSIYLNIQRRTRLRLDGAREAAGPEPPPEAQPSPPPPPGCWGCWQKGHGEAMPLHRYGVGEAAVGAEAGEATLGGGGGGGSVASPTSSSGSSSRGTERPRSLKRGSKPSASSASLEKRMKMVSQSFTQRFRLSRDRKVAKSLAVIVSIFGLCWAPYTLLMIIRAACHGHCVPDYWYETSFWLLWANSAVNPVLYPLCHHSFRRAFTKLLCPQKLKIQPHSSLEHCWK", "experiment": "Competition binding assay with [3H]-N-α-methylhistamine, human H3 receptor", "conditions": "cloned human H3 receptor, cell membranes", "description": "Membrane preparations were incubated with [^3H]-N-α-methylhistamine (0.5-1.0 nM) in the presence or absence of increasing concentrations of ligands for H3 receptor competition binding."}},
  "note": "Like-named read-outs stand apart in the source and are kept apart here.",
  "data": [
    {"smiles": "C[C@@H]1CCCN1CCc1cc2cc(-c3ccc(C#N)cc3)ccc2o1", "note": "[Compound 2, 4-(2-[2-((R)-2-methyl-pyrrolidin-1-yl)-ethyl]-benzofuran-5-yl}-benzonitrile]", "values": [
      {"measurement": "effect on diphenhydramine-induced increase of average 1-4 Hz EEG amplitude", "setting": "[1]; 0.3 mg/kg i.p. given 15 minutes before diphenhydramine 10.0 mg/kg i.p.", "result": "significantly reduces"},
      {"measurement": "effect on average amplitude of 1-4 Hz EEG, given alone", "setting": "[2]; 3.0 mg/kg i.p., first hour", "result": "trend toward a decrease"},
      {"measurement": "effect on average amplitude of 1-4 Hz EEG, given alone", "setting": "[2]; 0.1-3.0 mg/kg i.p., first hour", "result": "did not produce statistically significant lowering"}
    ]},
    {"smiles": "CN1C[C@H]2CCN(c3ccc(-c4ccc(-n5ncccc5=O)cc4)cc3)[C@H]2C1", "note": "[Compound 1, (3aR, 6aR)-2-[4′-(5-methyl-hexahydro-pyrrolo[3,4-b]pyrrol-1-yl)-biphenyl-4-yl]-2H-pyridazin-3-one]", "values": [
      {"measurement": "Ki", "setting": "[3]", "result": 8.1, "unit": "nM"},
      {"measurement": "Ki", "setting": "[4]", "result": 1.9, "unit": "nM"},
      {"measurement": "effect on diphenhydramine-induced increase of average 1-4 Hz EEG amplitude", "setting": "[1]; 0.01 mg/kg i.p. given 15 minutes before diphenhydramine 10.0 mg/kg i.p.", "result": "did not achieve statistical significance"},
      {"measurement": "effect on diphenhydramine-induced increase of average 1-4 Hz EEG amplitude", "setting": "[1]; 0.03 mg/kg and 0.1 mg/kg i.p. given 15 minutes before diphenhydramine 10.0 mg/kg i.p.", "result": "significantly reduces"},
      {"measurement": "effect on average amplitude of 1-4 Hz EEG, given alone", "setting": "[2]; 1.0 mg/kg i.p., first hour after injection", "result": "lower the average amplitude of 1-4 Hz EEG"},
      {"measurement": "effect on average amplitude of 1-4 Hz EEG, given alone", "setting": "[2]; 0.01-0.1 mg/kg i.p., first hour", "result": "did not produce significant lowering"}
    ]},
    {"smiles": "S=C(NC1CCCCC1)N1CCC(c2c[nH]cn2)CC1", "note": "[Compound 3, N-cyclohexyl-4-(1H-imidazol-4-yl)piperidine-1-carbothioamide]", "values": [
      {"measurement": "Ki", "setting": "[3]; read-out: rat H3 Ki, cloned rat H3 receptor, C6 or HEK293 cell membranes", "result": 3.6, "unit": "nM"},
      {"measurement": "effect on diphenhydramine-induced increase of average 1-4 Hz EEG amplitude", "setting": "[1]; 3.0 mg/kg i.p. given 15 minutes before diphenhydramine 10.0 mg/kg i.p.", "result": "significantly reduces"},
      {"measurement": "effect on average amplitude of 1-4 Hz EEG, given alone", "setting": "[2]; 30.0 mg/kg i.p., first hour after injection", "result": "lower the average amplitude of 1-4 Hz EEG"},
      {"measurement": "effect on average amplitude of 1-4 Hz EEG, given alone", "setting": "[2]; 3.0-10. mg/kg i.p., first hour", "result": "did not produce significant lowering"}
    ]},
    {"smiles": "CN(C)CCOC(c1ccccc1)c1ccccc1", "note": "[diphenhydramine]", "values": [
      {"measurement": "effect on average amplitude of 1-4 Hz EEG, given alone", "setting": "[2]; 10.0 mg/kg i.p., first hour", "result": "significantly increased"},
      {"measurement": "effect on average amplitude of 1-4 Hz EEG, given alone", "setting": "[2]; 1.0-3.0 mg/kg i.p., first hour", "result": "not significantly different from vehicle control"}
    ]}
  ]
}
